Experimental data published in patent US20220409723A1, “NOVEL VACCINE ADJUVANT COMPOSITION INCLUDING BAVACHIN” (KOREA INSTITUTE OF ORIENTAL MEDICINE, priority 2019, published 2022).

Columns and labels:
[1] = test system: C57/BL6 mice; test: Percentages of CD4 and CD8 cells in splenocytes by FACS analysis; type: in vivo, mouse; conditions: mice injected with bavachin together with OVA vs OVA alone; FIG. 6
Description: (§1) C57/BL6 mice were immunized with a mixture of OVA (10 μg) and bavachin (10 μg) or a mixture of OVA (10 μg) and bavachin (100 μg) by subcutaneous injection once every 1, 3, and 4 weeks. In this regard, those injected with OVA (10 μg) alone was used as a control.
(§2) Briefly, at 28 days after the first immunization, lymph nodes and spleens were removed from 5 mice per the treated mouse group (0.5% CMC (CON), OVA, Bavachin […], OVA+Bavachin), and ground to isolate cells from the tissue capsule. The spleens were subjected to hemolysis by treatment with an RBC lysis buffer, and splenocytes were isolated.
Therefore, percentages of CD4 cells and CD8 cells were compared by performing FAGS analysis of the splenocytes (FIG. 6).

[2] = test system: C57/BL6 mice; test: Serum immunoglobulin isotyping assay (CBA isotyping kit); type: in vivo, mouse; conditions: mice injected with bavachin together with OVA vs OVA alone; FIG. 2
Description: as §1
Antibody subclasses in the mouse sera collected in Example 3 were stained with CBA (Cytometric Bead Array) isotyping kit and analyzed by FAGS (FIG. 2).

[3] = test system: splenocytes and lymph node cells; test: Cytokines secreted from splenocytes and lymph node cells by CBA; type: cell-based, mouse; conditions: cells from mice injected with bavachin together with OVA vs OVA alone; day 28; treated with OVA 48 hours; FIG. 4
Description: as §1, §2
(§3) The isolated splenocytes and lymph node cells were dispensed in a 96-well-plate at a density of 1×10^6 cells/well, followed by treated with OVA for 48 hours. Thereafter, cell proliferation was measured by MTS (FIG. 3), and cytokines (IFN-γ, IL-2, IL-4, IL-6, IL-10, and TNF) secreted from the cells were measured by CBA (FIG. 4).

[4] = test system: C57/BL6 mice; test: OVA-specific IgG antibody titer in mouse sera by ELISA; type: in vivo; conditions: mice injected s.c. with bavachin (10 or 100 μg) together with OVA (10 μg) vs OVA alone; sera at 28 and 42 days; FIG. 1
Description: as §1
At 28 days and 42 days after the first immunization in Example 2, mouse sera were collected, and the titers of antigen-specific IgG antibodies in the sera were measured by way of ELISA (FIG. 1). At this time, in the ELISA method, an OVA-coated plate was blocked, and then sera of a control group and an experimental group were incubated at various serial dilution rates. Thereafter, horseradish peroxidase-conjugated mouse-IgG and IgG1 antibodies were added, and a substrate was added and allowed to react, followed by measurement with an ELISA reader.

[5] = test system: C57/BL6 mice; test: Total numbers of splenocytes and lymph node cells; type: in vivo, mouse; conditions: mice injected with bavachin together with OVA vs OVA alone; day 28; FIG. 5
Description: as §1, §2
The total numbers of the splenocytes and lymph node cells obtained in Example 5 were counted (FIG. 5).

[6] = test system: C57/BL6 mice; test: Percentages of effector T cells in lymph node cells by FACS analysis; type: in vivo, mouse; conditions: mice injected with bavachin together with OVA vs OVA alone; FIG. 7
Description: as §1, §2
Further, percentages of CD44^+CD62L^−CD4 cells and CD44^+CD62L^−CD8 cells, which are effector T cells, were compared by performing FAGS analysis of the lymph node cells (FIG. 7).

[7] = test system: splenocytes and lymph node cells; test: Antigen-specific cell proliferation of splenocytes and lymph node cells by MTS; type: cell-based, mouse; conditions: cells from mice injected with bavachin together with OVA vs OVA alone; day 28; treated with OVA 48 hours; FIG. 3
Description: as §1, §2, §3

Question: With `CC(C)=CCc1cc2c(cc1O)O[C@H](c1ccc(O)cc1)CC2=O` [bavachin] as the compound, how does the “percentage of CD4 cells in splenocytes” value [1] read?
Answer: Its value is “relatively high levels”.

Question: And the “percentage of CD8 cells in splenocytes” value [1]?
Answer: The value was “relatively high levels”.

Question: What about the “IgA immunoglobulin level in sera” value [2] of the same compound?
Answer: The value was “relatively high levels”.

Question: What about the “IgG1 immunoglobulin level in sera” value [2] of the same compound?
Answer: The value was “relatively high levels”.

Question: What about the “levels of cytokines (IFN-γ, IL-2, IL-4, IL-6, IL-10, and TNF) secreted from lymph node cells” value [3] of the same compound?
Answer: Its value is “relatively high levels”.

Question: What about the “levels of cytokines (IFN-γ, IL-2, IL-4, IL-6, IL-10, and TNF) secreted from splenocytes” value [3] of the same compound?
Answer: Its value is “relatively high levels”.

Question: What about the OVA-specific antibody titers [4] of the same compound?
Answer: The OVA-specific antibody titers was “significantly increased”.

Question: And the “number of lymph node cells” value [5]?
Answer: Its value is “relatively high levels”.

Question: What about the number of splenocytes [5] of the same compound?
Answer: Its number of splenocytes is “no significant difference”.

Question: What about the “percentages of effector T cells (CD44+CD62L−CD4 and CD44+CD62L−CD8) in lymph node cells” value [6] of the same compound?
Answer: Its value is “relatively high levels”.

Question: And the “cell proliferation ability of lymph node cells” value [7]?
Answer: The value was “relatively excellent cell proliferation ability”.

Question: What about the “cell proliferation ability of splenocytes” value [7] of the same compound?
Answer: The value was “relatively excellent cell proliferation ability”.
